Results as given in a melting point compilation (Tetko et al.).

SMILES | melting point
Cc1ccc(S(=O)(=O)N2CCOCC2)cc1N | 127 to 135 °C
CC(O)Cc1nc2ccccc2s1 (stereo unspecified) | 84 to 86 °C
CSCc1ccc(C(=O)O)cc1 | 145 to 147 °C
CC(O)c1ccc(NC(=O)c2ccncc2)cc1 (stereo unspecified) | 174 to 176 °C
Sc1ccc2c(c1)OCCCO2 | 41 to 43 °C
CCOC(=O)C(=O)c1ccc2c(c1)OCCO2 | 65 to 67 °C
COc1ccc2cc(C=O)c(Cl)nc2c1 | 84 to 86 °C
CC(=O)Nc1ccc(C)cc1O | 170 to 172 °C
Cc1ccnc2nc(C(=O)O)nn12 | 240 to 242 °C
OC1(Cc2ccc(F)cc2F)CC2CCC(C1)N2 (stereo unspecified) | 142 to 144 °C
COc1cc(C=O)cc2c1OCCO2 | 81 to 83 °C
Cc1ccc2c(CC(=O)O)cc(=O)oc2c1 | 209 to 211 °C
COc1ccc(CC#N)cc1[N+](=O)[O-] | 84 to 86 °C
NS(=O)(=O)c1ccc(CN=C=S)cc1 | 159 to 161 °C
Cc1cc(C=O)c(C)n1C(C)C | 45 to 47 °C
CC(O)Cc1ccc2ccccc2n1 (stereo unspecified) | 64 to 66 °C
CC1(Cc2ccc3c(c2)OCO3)NC(=O)NC1=O (stereo unspecified) | 183 to 185 °C
O=C(Nc1nccs1)C1CCCNC1 (stereo unspecified) | 178 to 180 °C
Cc1nc2c(c(C)nn2C)c(C)c1CCC(=O)O | 211 to 213 °C
N#Cc1ccc(NC(=O)CCCl)cc1 | 152 to 154 °C
CCCOC(=O)c1cc(-c2cncnc2)ccc1N | 145 to 147 °C

SMILES | melting point
O=c1cc(O)c2ccccc2o1 | 211 to 215 °C
Nc1ccc2[nH]c(-c3ccccn3)nc2c1 | 189 to 191 °C
NC(=O)Nc1ccc(Br)cc1C(=O)O | 171 to 173 °C
Nc1c(-c2ccccc2)ncn1C1CC1 | 148 to 150 °C
Cn1c(-c2ccccc2)c(C=O)c2ccccc21 | 125 to 127 °C
Cc1ccc(N2CCCNC(=O)C2)cc1 | 181 to 183 °C
COc1cc(C=O)ccc1OCCC(=O)O | 130 to 132 °C
Cc1oc(-c2ccco2)nc1CC(=O)O | 176 to 178 °C
OC(CNC1CC1)c1ccc(F)cc1 (stereo unspecified) | 84 to 86 °C
O=c1[nH]c(N2CCOCC2)nc2scc(-c3ccccc3)c12 | 307 to 309 °C
NS(=O)(=O)c1ccc(OCCBr)cc1 | 111 to 113 °C
Cc1nc(S)nc(O)c1CCO | 263 to 265 °C
COc1ccc(C2CNC(=O)C2)cc1 (stereo unspecified) | 126 to 128 °C
Cc1nn(C(C)(C)C)c(C)c1C(=O)O | 158 to 160 °C
NC(=O)CNC(=O)c1cccc(O)c1 | 179 to 181 °C
O=C(O)c1cccc(NC(=O)c2ccc(Br)o2)c1 | 229 to 231 °C
Cc1n[nH]c2ncc(C=O)cc12 | 202 to 204 °C
NNC(=S)NCC1CCC1 | 104 to 106 °C
CC(C)C(Br)C(=O)NCc1ccco1 (stereo unspecified) | 91 to 93 °C
O=C(CSc1cccs1)Nc1ccc(C(=O)O)cc1 | 233 to 235 °C
CCc1cccc2c(C(=O)CC#N)c[nH]c12 | 178 to 180 °C

SMILES | melting point
COc1cccc(CNc2ccc(F)cc2)c1O | 76 to 78 °C
NCc1ccc2c(c1)CCO2 | 38 to 40 °C
Cc1ccc(C2CS(=O)(=O)CCN2)o1 (stereo unspecified) | 111 to 113 °C
CC(Cl)C(=O)Nc1cccc(S(=O)(=O)N(C)C)c1 (stereo unspecified) | 163 to 167 °C
O=C(O)CNC(=O)c1cccc([N+](=O)[O-])c1 | 90 to 92 °C
O=c1[nH]c(-c2ccccc2F)cs1 | 187 to 189 °C
Cc1cccc(NC(N)=S)c1 | 110 to 112 °C
CC(Cl)C(=O)Nc1cccc(S(=O)(=O)N2CCCCC2)c1 (stereo unspecified) | 163 to 165 °C
CCOC(=O)c1sc2nc(CCl)nc(Cl)c2c1C | 168 to 170 °C
Cc1cc(C#N)ccc1S(=O)(=O)Cl | 64 to 66 °C
Nc1ccc(Cl)c(C(=O)NCc2cccs2)c1 | 69 to 71 °C
NC(=O)c1cnc(Cl)cn1 | 166 to 168 °C
CCCC(C(=O)O)N1CCN(C(=O)OC(C)(C)C)CC1 (stereo unspecified) | 149 to 151 °C
COc1cccc(-c2nc(C=O)cs2)c1 | 92 to 94 °C
O=C(Nc1nncs1)OCC(F)(F)F | 213 to 215 °C
CCN1CCN(CC(=O)O)C(=O)C1=O | 200 to 202 °C
CC(N)c1ccc(NC(=O)c2ccncc2)cc1 (stereo unspecified) | 159 to 161 °C
Clc1cc2nc(-c3ccccc3)nn2cn1 | 225 to 227 °C
O=C(O)CNC(=O)c1c(F)cccc1Cl | 197 to 199 °C
NC(=O)c1cnn(-c2ncccn2)c1N | 256 to 258 °C
NC(=O)c1cncs1 | 194 to 196 °C

SMILES | melting point
O=c1ccc(-n2cncn2)n[nH]1 | 240 to 242 °C
ClCc1nnc(-c2cccc(Cl)c2)o1 | 76 to 78 °C
CN1CCc2ncnc(Cl)c2C1 | 67 to 69 °C
N#Cc1ccc(C(Cl)C(N)=O)cc1 (stereo unspecified) | 114 to 116 °C
CC1Oc2ccccc2OC1C(=O)O (stereo unspecified) | 106 to 108 °C
CNC(C)c1ccc(-n2cncn2)cc1 (stereo unspecified) | 44 to 48 °C
CSc1ccc(NC(=O)C(C)Cl)cc1 (stereo unspecified) | 129 to 131 °C
O=C(O)C1CC(=O)N(c2ccc3c(c2)OCCO3)C1 (stereo unspecified) | 221 to 223 °C
O=C(O)Cc1ccc2c(c1)CCC2 | 86 to 90 °C
O=C(O)CN1CCCC1=O | 125 to 135 °C
COc1ccc(/C=C(/C(=O)O)c2cccs2)cc1 | 205 to 207 °C
NNc1cncc(Cl)n1 | 137 to 139 °C
O=C(O)C1CCCc2[nH]ncc21 (stereo unspecified) | 176 to 178 °C
COC(=O)c1cc(S(=O)(=O)Cl)c(F)cc1F | 104 to 106 °C
Cc1ccc(NCCC(N)=S)cc1 | 94 to 96 °C
NS(=O)(=O)C=Cc1cccc(Br)c1 | 153 to 155 °C
CC(C)n1nnnc1S | 89 to 91 °C
CC(=Cc1ccc(Br)o1)[N+](=O)[O-] | 89 to 91 °C
Cc1nn(C)c(C)c1C(C)C(=O)O (stereo unspecified) | 119 to 121 °C

Second part, the compound after the results:

melting point | SMILES
163 to 165 °C | O=C1CN(C(=O)c2ccc(Cl)nc2)CCN1
218 to 220 °C | Cc1c(C2CC2)nc2ccc(Br)cc2c1C(=O)O
170 to 172 °C | CC(=O)NCc1ccc(S(N)(=O)=O)cc1
82 to 84 °C | CCN(CC)S(=O)(=O)c1ccc(Cl)nc1
119 to 121 °C | O=C(O)C1CC(c2ccc(Cl)cc2)C1 (stereo unspecified)
130 to 132 °C | NC(=O)c1ccc(OC(F)F)cc1
113 to 115 °C | CC(C)c1ccc(-c2cc(N)on2)cc1
63 to 65 °C | CSc1ccc(OCCCl)cc1
133 to 135 °C | CCc1oc(C(=O)O)cc1C
55 to 57 °C | CCOC(=O)CCOc1ccc(C(C)=O)cc1
268 to 270 °C | CCc1ccc(S(=O)(=O)O)cc1N
210 to 212 °C | Cc1cc(S(N)(=O)=O)cc(NC(=O)CCl)c1C
216 to 218 °C | NC(=O)c1c[nH]c(C2CC2)n1
329 to 331 °C | O=C(O)c1cc(-c2ccc(C(F)(F)F)cc2)no1
116 to 118 °C | COc1cc(OC)cc(-c2cc(N)on2)c1
156 to 158 °C | CC(C)OC(=S)Nc1ccc(C#N)c(Cl)c1
169 to 171 °C | CC(=O)N1Cc2ccc(N)cc2C1
29 to 31 °C | O=C(c1ccc(Cl)c(Cl)c1)C1CC1
162 to 164 °C | CC1CNc2c(cccc2S(N)(=O)=O)C1 (stereo unspecified)
142 to 144 °C | CS(=O)(=O)Cc1cccc(S(=O)(=O)Cl)c1
105 to 107 °C | OCc1cn(-c2cccc(Cl)c2Cl)nn1
85 to 87 °C | CS(=O)(=O)c1ccc(OCCCl)cc1

melting point | SMILES
122 to 124 °C | CCN(CC)S(=O)(=O)c1ccc(Oc2cccc(C)c2)c(N)c1
48 to 50 °C | OC1CCCC1n1cccn1 (stereo unspecified)
39 to 41 °C | COc1cc(N)cc(Br)c1
69 to 71 °C | COC(=O)CCCOc1ccc(N)c2ccccc12
59 to 61 °C | COc1cccc(COCC(N)=NO)c1
118 to 120 °C | Clc1nccc(-n2cccn2)n1
67 to 69 °C | CC(C)(C)OC(=O)NC1CCCCCC1=O (stereo unspecified)
198 to 200 °C | COc1cc2c(cc1OC)CN(C(N)=O)CC2
214 to 216 °C | O=C(O)c1cnn(-c2ccc(F)cc2)n1
267 to 271 °C | O=c1[nH]cnc2ccc(Br)cc12
40 to 42 °C | Clc1ncc(-c2ccccc2)s1
52 to 54 °C | O=[N+]([O-])c1c(F)cccc1S(=O)(=O)Cl
75 to 77 °C | C#CCOc1ccc(C=O)cc1
76 to 78 °C | Brc1ccc(NCc2ccccn2)cc1
93 to 95 °C | COC(=O)C(=O)CC(=O)c1ccncc1
223 to 225 °C | COc1cccc(C(N)CC(=O)O)c1 (stereo unspecified)
194 to 196 °C | Cc1ccc(-n2nnc(CC(=O)O)c2C)cc1
369 to 371 °C | N#Cc1cnn2c(O)cc(CCl)nc12
162 to 166 °C | COc1cc(C=O)cc(Cl)c1O
170 to 172 °C | O=C(O)CNS(=O)(=O)c1ccccc1F
61 to 63 °C | O=Cc1cc(Br)ccc1OCc1ccccc1
125 to 127 °C | N#CCC(=O)NCc1ccccc1

melting point | SMILES
187 to 189 °C | O=C(O)C=Cc1csc(Br)c1
83 to 85 °C | CC(=O)c1ccc(N)cc1C
82 to 84 °C | Cc1cccc(-n2nc(-c3ccco3)cc2N)c1
102 to 105 °C | O=C(CCl)NC(=O)NC1CCCCC1
271 to 273 °C | Nc1nnc(-c2ccc3c(c2)OCO3)o1
65 to 67 °C | COc1ccc(NC(=O)C(C)Cl)c(OC)c1 (stereo unspecified)
173 to 175 °C | O=C(O)CCC1NC(=O)N(c2ccc(Cl)c(Cl)c2)C1=O (stereo unspecified)
160 to 162 °C | Cc1ccccc1-c1nnc(N)o1
46 to 48 °C | Cc1ncc(CN)n1-c1ccccc1
186 to 188 °C | CCn1c(CCC(=O)O)nc2cc(S(=O)(=O)N(C)C)ccc21
149 to 151 °C | CCOc1cccc2c1C(=O)NC2=O
113 to 115 °C | Nc1cc(F)c(I)c(F)c1
60 to 62 °C | N#Cc1cccnc1C1CC1
181 to 183 °C | COc1cc(OC)c2cc(C(=O)O)[nH]c2c1OC
173 to 175 °C | O=C(O)CS(=O)(=O)Cc1cccc(Br)c1
136 to 138 °C | CN(CCO)CC(=O)O
233 to 235 °C | COC(=O)c1[nH]n(-c2ccc(C(=O)O)cc2)c(=O)c1CCO
107 to 109 °C | ON=C1CCCOc2ccc(Br)cc21
211 to 213 °C | O=C(O)c1cc(C2CC2)nc2ccc(Cl)cc12
103 to 105 °C | O=Cc1cncc2ccccc12
